{"source": "ChEMBL document CHEMBL5726951", "about": "“Small molecule inhibitors of the JAK family of kinases” (2019)", "key": {"[1]": {"target": "Non-receptor tyrosine-protein kinase TYK2 (Homo sapiens, UniProt P29597, C1142A/C936A)", "sequence (P29597 whole entry C936A/C1142A)": "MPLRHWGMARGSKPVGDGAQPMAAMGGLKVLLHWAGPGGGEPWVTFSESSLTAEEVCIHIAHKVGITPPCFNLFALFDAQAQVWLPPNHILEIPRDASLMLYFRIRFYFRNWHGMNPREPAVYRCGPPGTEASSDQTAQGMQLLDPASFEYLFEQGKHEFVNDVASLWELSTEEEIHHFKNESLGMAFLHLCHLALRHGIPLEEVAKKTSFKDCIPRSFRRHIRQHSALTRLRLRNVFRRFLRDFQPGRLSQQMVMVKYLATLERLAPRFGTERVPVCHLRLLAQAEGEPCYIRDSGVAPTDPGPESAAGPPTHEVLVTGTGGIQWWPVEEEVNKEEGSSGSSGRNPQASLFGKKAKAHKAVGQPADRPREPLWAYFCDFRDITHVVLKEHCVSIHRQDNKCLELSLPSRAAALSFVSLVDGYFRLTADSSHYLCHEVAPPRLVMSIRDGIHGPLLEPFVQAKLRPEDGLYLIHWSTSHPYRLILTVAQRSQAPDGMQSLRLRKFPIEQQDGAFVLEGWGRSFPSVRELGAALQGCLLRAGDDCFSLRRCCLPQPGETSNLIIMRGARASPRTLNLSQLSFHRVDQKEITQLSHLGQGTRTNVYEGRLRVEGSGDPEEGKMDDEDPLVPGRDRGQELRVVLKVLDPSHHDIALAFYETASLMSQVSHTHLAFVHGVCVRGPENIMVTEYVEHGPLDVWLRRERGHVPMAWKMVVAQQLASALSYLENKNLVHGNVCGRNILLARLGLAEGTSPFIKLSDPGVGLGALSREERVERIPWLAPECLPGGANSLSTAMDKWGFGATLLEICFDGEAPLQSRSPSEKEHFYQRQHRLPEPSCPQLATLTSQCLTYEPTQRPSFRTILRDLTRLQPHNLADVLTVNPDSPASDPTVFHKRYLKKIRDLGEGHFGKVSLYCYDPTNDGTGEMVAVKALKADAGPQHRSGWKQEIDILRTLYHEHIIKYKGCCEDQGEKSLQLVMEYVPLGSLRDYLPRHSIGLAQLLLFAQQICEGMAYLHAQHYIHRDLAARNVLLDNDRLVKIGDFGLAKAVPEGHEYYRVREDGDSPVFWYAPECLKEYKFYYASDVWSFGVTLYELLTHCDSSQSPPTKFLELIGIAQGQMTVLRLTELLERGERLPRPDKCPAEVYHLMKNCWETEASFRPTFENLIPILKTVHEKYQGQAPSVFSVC", "assay": "(§1) Enzymatic Inhibition Assay: Substrate (NH2-[…]-CO2), internal standard peptide (NH2-[…]-CO2) and product peptide (for standard curve only) (NH2-[…]-Pi-FELVKK-CO2), were purchased from AnaSpec (Fremont, Calif., USA). JAK1-JH1JH2 (574-1154 with a His-GST Tag and a C-terminal tev (ENLYFQ-G) cleavage site), JAK3-JH1JH2 (512-1124 with a GST Tag and a C-terminal tev (ENLYFQ-G) cleavage site), and Tyk2-JH1JH2 (8H_tev_580-1182-C936A-C1142A with a C-terminal tev (ENLYFQ-G) cleavage site) were purified internally. JAK2-JH1JH2 (532-1132 with a GST tag and C-terminal tev (ENLYFQ-G) cleavage site), was purchased from Invitrogen. LC/MS grade water and acetonitrile (ACN), were purchased from HoneyWell, Burdick & Jackson (Muskegon, Mich., USA). Dimethylsulfoxide 99.8% (DMSO) and trifluoroacetic acid 99.5% (TFA) were purchased from EMD Chemical (Gibbstown, N.J., USA). Adenosine triphosphate (ATP), 4-morpholinepropanesulfonic acid (MOPS), magnesium chloride (MgCl2), ethylenediaminetetraacetic acid (EDTA), dithiothreitol (DTT), formic acid>95% (FA) and Tween-20 were purchased from Sigma (St Louis, Mo., USA). 384-well polypropylene plates, Cat#781280 were purchased from Greiner (Monroe, N.C.), RapidFire™ cartridge A C4 Column (Agilent Technologies, Santa Clara, Calif.).The HTMS experiments were performed in positive ionization mode on a RapidFire 300 instrument (Agilent Technologies, Santa Clara, Calif.), coupled with an ABSiex QTrap 4000 system with an Electrospray Ionization source (RF-MS) (Concord, ON, Canada). The RapidFire system was run with 3 Agilent 1200 series isocratic pumps Agilent Technologies (Santa Clara, Calif.) and one peristaltic pump model ISM832C from Ismatec (Wertheim, Germany). The entire system was operated using the RapidFire software interfaced with Analyst software for the mass spectrometer.Assay Protocol11-point dosing series were made for each compound by serially diluting 1:3 or 1:4 in DMSO, with point 12 being a DMSO control. From the serial dilution plates, sample was transferred to a 384 wells assay plate (#781280, Greiner, Monroe, N.C.) using Labcyte Echo (Sunnyvale, Calif.), or Biosero ATS (San Diego, Calif.). The compounds were tested in duplicate. Column 12 was used for positive controls, and column 24 contained negative controls with no enzyme added. A compound from our internal collection, with inhibitory activity for JAK isoforms, was used as a reference compound. The final concentration of DMSO was ≤0.25% in a 20 μL reaction. The enzyme reaction was initiated by the addition of 10 μL of enzyme and ATP mixture to 10 μL of substrate solution prepared in reaction buffer (50 mM MOPS pH 7.5, 10 mM MgCl2, 1 mM EDTA, 2 mM DTT, 0.002% Tween-20). The Tyk2 enzyme was pre-incubated with 2 mM ATP for 30 min prior to the reaction initiation. Immediately after the addition of the enzyme to the reaction mixture, the plate was centrifuged at 1000 rpm for 1 minute and incubated at 25° C. for 45 minutes for JAK3 and 90 minutes for JAK1, JAK2 and Tyk2. The reaction was quenched by the addition of 20 μL of 0.5% TFA containing 0.15 μM of internal standard peptide using Multidrop Combi reagent dispenser (Thermo Scientific, Waltham, Mass.). Several wells in column 24 were typically used for the product standard curve. After the quench, the assay plate was centrifuged at 3000 rpm for 3 minutes and sealed with pierceable aluminum foil (Cat#06644-001, Agilent) using a PlateLoc (Agilent Technologies, Santa Clara, Calif.). The plates then were transferred on to the RapidFire for the MS analysis. Compound inhibition was assessed by a decrease of the phosphorylated product levels in sample wells compared to the non-inhibited enzyme reaction."}, "[2]": {"target": "Tyrosine-protein kinase JAK1 (Homo sapiens, UniProt P23458)", "sequence (P23458 whole entry)": "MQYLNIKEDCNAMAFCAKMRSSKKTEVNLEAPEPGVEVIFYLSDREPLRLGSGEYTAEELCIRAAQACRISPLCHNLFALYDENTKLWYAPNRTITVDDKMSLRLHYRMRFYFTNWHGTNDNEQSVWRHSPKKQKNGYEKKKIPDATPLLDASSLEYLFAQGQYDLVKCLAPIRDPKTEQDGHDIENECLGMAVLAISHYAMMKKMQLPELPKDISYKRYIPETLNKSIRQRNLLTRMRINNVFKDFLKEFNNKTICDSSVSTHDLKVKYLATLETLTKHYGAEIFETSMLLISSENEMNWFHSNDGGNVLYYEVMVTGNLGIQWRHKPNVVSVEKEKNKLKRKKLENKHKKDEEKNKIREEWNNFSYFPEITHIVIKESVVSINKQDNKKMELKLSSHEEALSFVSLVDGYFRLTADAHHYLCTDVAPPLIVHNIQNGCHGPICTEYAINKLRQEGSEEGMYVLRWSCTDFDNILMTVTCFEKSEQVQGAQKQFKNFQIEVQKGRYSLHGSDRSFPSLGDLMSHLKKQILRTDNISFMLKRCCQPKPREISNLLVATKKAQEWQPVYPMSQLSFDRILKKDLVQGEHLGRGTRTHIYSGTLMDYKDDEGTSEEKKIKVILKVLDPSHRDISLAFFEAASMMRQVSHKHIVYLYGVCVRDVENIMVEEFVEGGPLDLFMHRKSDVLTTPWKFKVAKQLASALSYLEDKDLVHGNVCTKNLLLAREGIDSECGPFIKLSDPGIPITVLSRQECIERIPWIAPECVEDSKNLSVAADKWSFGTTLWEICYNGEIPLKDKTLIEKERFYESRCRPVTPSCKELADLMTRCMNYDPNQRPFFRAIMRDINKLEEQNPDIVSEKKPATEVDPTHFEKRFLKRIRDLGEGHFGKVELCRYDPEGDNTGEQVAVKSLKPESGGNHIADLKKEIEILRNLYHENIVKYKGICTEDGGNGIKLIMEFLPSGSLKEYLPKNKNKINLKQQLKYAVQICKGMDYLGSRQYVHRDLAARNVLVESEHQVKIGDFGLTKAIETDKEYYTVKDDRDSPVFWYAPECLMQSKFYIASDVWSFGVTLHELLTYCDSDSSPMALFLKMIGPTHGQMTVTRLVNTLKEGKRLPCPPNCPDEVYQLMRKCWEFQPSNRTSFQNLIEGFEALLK", "assay": "as §1"}, "[3]": {"target": "T1, Tyrosine-protein kinase JAK3 (Homo sapiens, UniProt P52333)", "T1 sequence (P52333 whole entry)": "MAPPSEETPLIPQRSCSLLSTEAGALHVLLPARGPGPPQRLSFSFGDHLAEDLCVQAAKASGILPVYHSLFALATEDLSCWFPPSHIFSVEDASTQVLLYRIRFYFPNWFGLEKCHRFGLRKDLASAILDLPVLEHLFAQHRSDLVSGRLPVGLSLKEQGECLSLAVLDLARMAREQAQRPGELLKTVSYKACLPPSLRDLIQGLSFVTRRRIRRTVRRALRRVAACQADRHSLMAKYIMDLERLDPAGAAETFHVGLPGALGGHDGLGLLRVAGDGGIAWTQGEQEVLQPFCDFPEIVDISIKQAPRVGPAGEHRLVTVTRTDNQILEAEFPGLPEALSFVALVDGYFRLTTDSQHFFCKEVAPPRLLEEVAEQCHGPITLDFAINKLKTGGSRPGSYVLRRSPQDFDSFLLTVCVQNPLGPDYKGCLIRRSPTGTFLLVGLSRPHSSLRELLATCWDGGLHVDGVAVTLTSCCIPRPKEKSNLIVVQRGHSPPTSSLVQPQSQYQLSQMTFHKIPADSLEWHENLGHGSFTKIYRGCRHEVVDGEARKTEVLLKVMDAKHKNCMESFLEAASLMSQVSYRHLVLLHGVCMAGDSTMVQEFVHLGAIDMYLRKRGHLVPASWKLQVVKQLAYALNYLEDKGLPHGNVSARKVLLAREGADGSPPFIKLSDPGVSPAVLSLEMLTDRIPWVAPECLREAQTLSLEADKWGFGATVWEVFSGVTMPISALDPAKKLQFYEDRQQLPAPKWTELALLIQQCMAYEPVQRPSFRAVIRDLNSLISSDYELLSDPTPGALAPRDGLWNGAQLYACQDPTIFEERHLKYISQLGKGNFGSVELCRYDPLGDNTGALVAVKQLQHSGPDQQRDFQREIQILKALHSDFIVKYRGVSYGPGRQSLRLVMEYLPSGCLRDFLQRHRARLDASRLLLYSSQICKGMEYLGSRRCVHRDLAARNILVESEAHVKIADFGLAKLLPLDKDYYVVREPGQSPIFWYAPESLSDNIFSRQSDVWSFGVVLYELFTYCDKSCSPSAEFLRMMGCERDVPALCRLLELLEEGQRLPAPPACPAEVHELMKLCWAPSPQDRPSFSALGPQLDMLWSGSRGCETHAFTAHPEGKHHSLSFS", "assay": "as §1"}, "[4]": {"target": "Tyrosine-protein kinase JAK2 (Homo sapiens, UniProt O60674)", "sequence (O60674 whole entry, canonical isoform)": "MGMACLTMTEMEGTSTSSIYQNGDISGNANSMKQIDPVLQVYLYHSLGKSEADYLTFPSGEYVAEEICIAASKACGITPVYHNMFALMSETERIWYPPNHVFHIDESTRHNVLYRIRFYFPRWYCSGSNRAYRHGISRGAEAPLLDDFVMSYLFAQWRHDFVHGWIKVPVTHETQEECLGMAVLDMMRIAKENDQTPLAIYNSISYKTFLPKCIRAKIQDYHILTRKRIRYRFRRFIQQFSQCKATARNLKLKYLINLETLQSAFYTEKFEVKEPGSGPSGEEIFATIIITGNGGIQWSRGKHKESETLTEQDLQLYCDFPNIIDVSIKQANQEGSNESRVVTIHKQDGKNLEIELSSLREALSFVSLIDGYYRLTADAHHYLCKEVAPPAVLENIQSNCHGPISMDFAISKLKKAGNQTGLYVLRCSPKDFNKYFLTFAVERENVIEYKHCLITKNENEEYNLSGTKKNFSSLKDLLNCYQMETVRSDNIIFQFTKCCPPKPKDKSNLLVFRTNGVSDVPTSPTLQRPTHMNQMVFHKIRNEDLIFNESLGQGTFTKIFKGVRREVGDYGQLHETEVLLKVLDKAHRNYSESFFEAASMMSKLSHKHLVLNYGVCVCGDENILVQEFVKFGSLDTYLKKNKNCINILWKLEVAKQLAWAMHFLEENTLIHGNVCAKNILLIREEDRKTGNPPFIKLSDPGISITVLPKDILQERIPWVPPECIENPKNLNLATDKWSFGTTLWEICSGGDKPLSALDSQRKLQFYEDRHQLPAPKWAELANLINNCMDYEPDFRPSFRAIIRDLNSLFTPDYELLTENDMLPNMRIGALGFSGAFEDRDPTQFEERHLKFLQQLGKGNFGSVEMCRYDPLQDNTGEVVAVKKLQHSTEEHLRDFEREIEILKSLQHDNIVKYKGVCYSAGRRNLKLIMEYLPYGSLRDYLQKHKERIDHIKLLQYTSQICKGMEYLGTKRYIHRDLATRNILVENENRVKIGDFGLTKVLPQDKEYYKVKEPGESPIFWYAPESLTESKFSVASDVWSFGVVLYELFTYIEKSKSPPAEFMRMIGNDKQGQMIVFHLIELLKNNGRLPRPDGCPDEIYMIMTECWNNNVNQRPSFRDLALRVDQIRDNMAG", "assay": "LC/MS grade water and acetonitrile (ACN), were purchased from HoneyWell, Burdick & Jackson (Muskegon, Mich., USA). […] The compounds were tested in duplicate. Column 12 was used for positive controls, and column 24 contained negative controls with no enzyme added. A compound from our internal collection, with inhibitory activity for JAK isoforms, was used as a reference compound. […] The enzyme reaction was initiated by the addition of 10 μL of enzyme and ATP mixture to 10 μL of substrate solution prepared in reaction buffer (50 mM MOPS pH 7.5, 10 mM MgCl2, 1 mM EDTA, 2 mM DTT, 0.002% Tween-20). The Tyk2 enzyme was pre-incubated with 2 mM ATP for 30 min prior to the reaction initiation. Immediately after the addition of the enzyme to the reaction mixture, the plate was centrifuged at 1000 rpm for 1 minute and incubated at 25° C. for 45 minutes for JAK3 and 90 minutes for JAK1, JAK2 and Tyk2. […] The plates then were transferred on to the RapidFire for the MS analysis. Compound inhibition was assessed by a decrease of the phosphorylated product levels in sample wells compared to the non-inhibited enzyme reaction."}}}
{"smiles": "N#CC[C@H]1CC[C@H](n2c(CO)nc3cnc4[nH]ccc4c32)CC1", "values": [{"measurement": "IC50", "setting": "[1]", "result": "< 0.2", "unit": "nM"}, {"measurement": "IC50", "setting": "[2]", "result": "< 0.2", "unit": "nM"}, {"measurement": "IC50", "setting": "[3]", "result": 13.4, "unit": "nM"}, {"measurement": "IC50", "setting": "[4]", "result": "< 0.2", "unit": "nM"}]}
{"smiles": "Cc1nc2cnc3[nH]ccc3c2n1[C@H]1CC[C@H](CC#N)CC1", "values": [{"measurement": "IC50", "setting": "[1]", "result": 0.9, "unit": "nM"}, {"measurement": "IC50", "setting": "[2]", "result": "< 0.2", "unit": "nM"}, {"measurement": "IC50", "setting": "[3]", "result": 12.4, "unit": "nM"}, {"measurement": "IC50", "setting": "[4]", "result": "< 0.2", "unit": "nM"}]}
